Experimental data: patent US20240199613A1 (TAKEDA PHARMACEUTICAL COMPANY LIMITED, priority 2021, published 2024)

Experiments:
[1] = molecular target: human activated kallikrein enzyme (Homo sapiens, UniProt P03952); test: Inhibition of activated plasma kallikrein, fluorogenic peptide substrate (PFR-AMC) assay, 500 pM enzyme format; assay type: biochemical; conditions: 500 pM activated kallikrein, 300 uM PFR-AMC, 30 min preincubation, 10 min reaction, room temperature; read-out: Primary Dose Response Assay: Average EC50
Description: Compounds were evaluated for inhibition of the human activated kallikrein enzyme in two formats of an assay employing a fluorogenic peptide substrate. In one assay format, the concentrations of reagents were as follows: 20 mM Tris pH 7.5, 1 mM EDTA, 150 mM sodium chloride, 0.1% PEG-400, 0.1% Triton X-100, 500 pM activated kallikrein enzyme, 300 uM Pro-Phe-Arg-7-amido-4-methylcoumarin (PFR-AMC) substrate. Prior to reaction initiation with substrate, enzyme and inhibitors were preincubated for 30 min at room temperature. After initiation with substrate, reactions were incubated for 10 min at room temperature and fluorescence emission at 460 nm from 380 nm excitation measured with a microplate reader. In another assay format, the concentrations of reagents were as follows: 20 mM Tris pH 7.5, 1 mM EDTA, 150 mM sodium chloride, 0.1% PEG-400, 0.1% Triton X-100, 5 pM activated kallikrein enzyme, 300 uM PFR-AMC substrate. Prior to reaction initiation with substrate, enzyme and inhibitors were preincubated for 30 min at room temperature. After initiation with substrate, reactions were incubated for 18 hr at room temperature and fluorescence emission at 460 nm from 380 nm excitation measured with a microplate reader.
Table 6 provides the results of the assay in the format with 500 pM activated kallikrein assay.

plasma kallikrein = molecular target: T1, plasma kallikrein (Homo sapiens, UniProt P03952); test: Neat human plasma assay: contact pathway-activated (FXIIa) plasma, PFR-AMC substrate; assay type: biochemical; conditions: citrated human plasma (78% final), 10 nM human FXIIa, 100 μM PFR-AMC, room temperature
T1 construct: from tissue; host or cells: sodium citrate collected human plasma (78% final)
Description: To analyze inhibition of plasma kallikrein in an ex vivo setting, the potency of compounds was measure in contact pathway-activated plasma assays. In a fluorogenic peptide substrate assay, test compounds dissolved in DMSO were added to sodium citrate collected human or rat plasma in a 96-well microplate. Alternatively, citrated plasma was collected from rats administered the compounds orally or by IV. 10 nM of human FXIIa (Enzyme Research Laboratories) diluted in pKal buffer (20 mM Tris-HCl, pH 7.5, 150 mM NaCl, 1 mM EDTA, 0.1% PEG-8000, and 0.1% Triton X-100) was added to the plasma, followed by the 100 μM of the profluorescent, synthetic plasma kallikrein substrate PFR-AMC (also diluted in pKal buffer). Final plasma concentration in the reaction was 78%. Fluorescence was immediately monitored by excitation/emission wavelengths of 360 nm/480 nm respectively over a period of 5 minutes in a microplate reader. The resulting linear increase in fluorescence emission (reflecting pKal proteolysis of PFR-AMC substrate) was fit to extract a proteolytic rate (fluorescent units over time), and this rate was subsequently plotted against compound inhibitor concentration. Resulting plots were fit to a standard 4-parameter IC50/IC90 equation to determine min/max values, IC50/90, and slope. All experimental steps were performed at room temperature.

Chain of human activated kallikrein enzyme (P03952 391-638 limits assumed): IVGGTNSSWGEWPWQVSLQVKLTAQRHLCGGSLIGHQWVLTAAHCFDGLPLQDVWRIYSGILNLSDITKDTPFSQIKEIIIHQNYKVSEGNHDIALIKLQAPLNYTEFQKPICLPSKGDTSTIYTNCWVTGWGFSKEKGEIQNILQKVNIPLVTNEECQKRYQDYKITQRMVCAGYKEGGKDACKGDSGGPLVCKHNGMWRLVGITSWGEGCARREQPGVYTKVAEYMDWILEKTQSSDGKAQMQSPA
Chain of human activated kallikrein enzyme (P03952 20-390 partner limits assumed): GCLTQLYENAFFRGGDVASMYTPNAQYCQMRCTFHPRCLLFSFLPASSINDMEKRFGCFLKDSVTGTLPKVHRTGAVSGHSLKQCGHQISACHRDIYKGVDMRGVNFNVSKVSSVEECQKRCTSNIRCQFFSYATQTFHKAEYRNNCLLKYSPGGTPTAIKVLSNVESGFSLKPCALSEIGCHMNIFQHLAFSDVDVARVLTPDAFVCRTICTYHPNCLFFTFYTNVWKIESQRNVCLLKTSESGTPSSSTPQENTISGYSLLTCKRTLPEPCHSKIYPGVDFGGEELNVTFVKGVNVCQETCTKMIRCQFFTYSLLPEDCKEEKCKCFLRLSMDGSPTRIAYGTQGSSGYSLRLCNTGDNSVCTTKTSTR
T1 sequence (P03952 391-638 limits assumed): as the sequence (P03952 391-638 limits assumed) above
T1 sequence (P03952 20-390 partner limits assumed): as the sequence (P03952 20-390 partner limits assumed) above

Row | Compound | EC50 [1] | IC90 (plasma kallikrein)
1 | Cc1ccnc([C@H]2C[C@@H]2c2cc(=O)c3ccc(NCc4cn5cc(C6CC6)cc(N6CC(=O)N(C)C6=O)c5n4)cc3[nH]2)n1 (racemic) [Example 11, rac-1-(6-cyclopropyl-2-(((2-((1S*,2S*)-2-(4-methylpyrimidin-2-yl)cyclopropyl)-4-oxo-1,4-dihydroquinolin-7-yl)amino)methyl)imidazo[1,2-a]pyridin-8-yl)-3-methylimidazolidine-2,4-dione] | ≤ 0.001 µM | 0.4 to 1.5 µM
2 | Cc1ccnc([C@H]2C[C@@H]2c2cc(-c3cnn(C)c3)c3ccc(NCc4cn5cc(C6CC6)cc(N6CC(=O)N(C)C6=O)c5n4)cc3n2)n1 [Example 27, 1-(6-cyclopropyl-2-(((4-(1-methyl-1H-pyrazol-4-yl)-2-((1S,2S)-2-(4-methylpyrimidin-2-yl)cyclopropyl)quinolin-7-yl)amino)methyl)imidazo[1,2-a]pyridin-8-yl)-3-methylimidazolidine-2,4-dione] | ≤ 0.001 µM | 0.4 to 1.5 µM
3 | Cc1ccnc([C@H]2C[C@@H]2c2ccc3ccc(NCc4cn5cc(C6CC6)cc(N6CC(=O)N(C)C6=O)c5n4)cc3n2)n1 (single isomer, unassigned) [Example 59] | ≤ 0.001 µM | 1.5 to 10 µM
4 | Cc1ccnc([C@H]2C[C@@H]2c2cc(CO)c3ccc(NCc4cn5cc(C6CC6)cc(N6CC(=O)N(C)C6=O)c5n4)cc3n2)n1 (racemic) [Example 77, rac-1-(6-cyclopropyl-2-(((4-(hydroxymethyl)-2-((1S*,2S*)-2-(4-methylpyrimidin-2-yl)cyclopropyl)quinolin-7-yl)amino)methyl)imidazo[1,2-a]pyridin-8-yl)-3-methylimidazolidine-2,4-dione] | ≤ 0.001 µM | 0.4 to 1.5 µM
5 | COc1cc(NCc2cn3cc(C4CC4)cc(N4CC(=O)N(C)C4=O)c3n2)cc2nc([C@H]3C[C@@H]3c3nccc(C)n3)ccc12 [Example 28, 1-(6-cyclopropyl-2-(((5-methoxy-2-((1S,2S)-2-(4-methylpyrimidin-2-yl)cyclopropyl)quinolin-7-yl)amino)methyl)imidazo[1,2-a]pyridin-8-yl)-3-methylimidazolidine-2,4-dione] | ≤ 0.001 µM | 0.4 to 1.5 µM
6 | Cc1ccnc([C@H]2C[C@@H]2c2nc(=O)c3ccc(NCc4cn5cc(C6CC6)cc(N6CC(=O)N(C)C6=O)c5n4)cc3[nH]2)n1 (racemic) [Example 8, rac-1-(6-cyclopropyl-2-(((2-((1S*,2S*)-2-(4-methylpyrimidin-2-yl)cyclopropyl)-4-oxo-1,4-dihydroquinazolin-7-yl)amino)methyl)imidazo[1,2-a]pyridin-8-yl)-3-methylimidazolidine-2,4-dione] | ≤ 0.001 µM | 1.5 to 10 µM
7 | Cc1ccnc([C@H]2C[C@@H]2c2cc(OC3CCN(C)CC3)c3ccc(NCc4cn5cc(C6CC6)cc(N6CC(=O)N(C)C6=O)c5n4)cc3n2)n1 (racemic) [Example 35, rac-1-(6-cyclopropyl-2-(((4-((1-methylpiperidin-4-yl)oxy)-2-((1S*,2S*)-2-(4-methylpyrimidin-2-yl)cyclopropyl)quinolin-7-yl)amino)methyl)imidazo[1,2-a]pyridin-8-yl)-3-methylimidazolidine-2,4-dione] | ≤ 0.001 µM | ≤ 0.4 µM
8 | Cc1ccnc([C@H]2C[C@@H]2c2cc(N3CC4(COC4)C3)c3ccc(NCc4cn5cc(C6CC6)cc(N6CC(=O)N(C)C6=O)c5n4)cc3n2)n1 [Example 36, 1-(6-cyclopropyl-2-(((2-((1S,2S)-2-(4-methylpyrimidin-2-yl)cyclopropyl)-4-(2-oxa-6-azaspiro[3.3]heptan-6-yl)quinolin-7-yl)amino)methyl)imidazo[1,2-a]pyridin-8-yl)-3-methylimidazolidine-2,4-dione] | ≤ 0.001 µM | ≤ 0.4 µM
9 | Cc1ccnc([C@H]2C[C@@H]2c2nc3cc(NCc4cn5cc(C6CC6)cc(N6CC(=O)N(C)C6=O)c5n4)cnc3c(=O)[nH]2)n1 (racemic) [Example 9, rac-1-(6-cyclopropyl-2-(((2-((1S*,2S*)-2-(4-methylpyrimidin-2-yl)cyclopropyl)-4-oxo-3,4-dihydropyrido[3,2-d]pyrimidin-7-yl)amino)methyl)imidazo[1,2-a]pyridin-8-yl)-3-methylimidazolidine-2,4-dione] | ≤ 0.001 µM | 1.5 to 10 µM
10 | Cc1ccnc([C@H]2C[C@@H]2c2cc(N3CC4(COC4)C3)c3cnc(OCc4cn5cc(C6CC6)cc(N6CC(=O)N(C)C6=O)c5n4)cc3n2)n1 [Example 103, 1-(6-cyclopropyl-2-(((2-((1S,2S)-2-(4-methylpyrimidin-2-yl)cyclopropyl)-4-(2-oxa-6-azaspiro[3.3]heptan-6-yl)-1,6-naphthyridin-7-yl)oxy)methyl)imidazo[1,2-a]pyridin-8-yl)-3-methylimidazolidine-2,4-dione] | ≤ 0.001 µM | ≤ 0.4 µM
11 | Cc1ccnc([C@H]2C[C@@H]2c2cc(O)c3cnc(NCc4cn5cc(C6CC6)cc(N6CC(=O)N(C)C6=O)c5n4)nc3n2)n1 (racemic) [Example 86, rac-1-(6-cyclopropyl-2-(((5-hydroxy-7-((1S*,2S*)-2-(4-methylpyrimidin-2-yl)cyclopropyl)pyrido[2,3-d]pyrimidin-2-yl)amino)methyl)imidazo[1,2-a]pyridin-8-yl)-3-methylimidazolidine-2,4-dione] | ≤ 0.001 µM | 1.5 to 10 µM
12 | Cc1ccnc([C@H]2C[C@@H]2c2cc(N3CCN(C)CC3)c3ccc(NCc4cn5cc(C6CC6)cc(N6CC(=O)N(C)C6=O)c5n4)cc3n2)n1 [Example 39, 1-(6-cyclopropyl-2-(((4-(4-methylpiperazin-1-yl)-2-((1S,2S)-2-(4-methylpyrimidin-2-yl)cyclopropyl)quinolin-7-yl)amino)methyl)imidazo[1,2-a]pyridin-8-yl)-3-methylimidazolidine-2,4-dione] | ≤ 0.001 µM | ≤ 0.4 µM
13 | Cc1ccnc([C@H]2C[C@@H]2c2ccc3ccc(NCc4cn5cc(C6CC6)cc(N6CC(=O)N(C)C6=O)c5n4)cc3n2)n1 (racemic) [Example 57, rac-1-(6-cyclopropyl-2-(((2-((1S*,2S*)-2-(4-methylpyrimidin-2-yl)cyclopropyl)quinolin-7-yl)amino)methyl)imidazo[1,2-a]pyridin-8-yl)-3-methylimidazolidine-2,4-dione] | ≤ 0.001 µM | 1.5 to 10 µM
14 | Cc1ccnc([C@H]2C[C@@H]2c2cc(OC3COC3)c3ccc(NCc4cn5cc(C6CC6)cc(N6CC(=O)N(C)C6=O)c5n4)cc3n2)n1 (racemic) [Example 33, rac-1-(6-cyclopropyl-2-(((2-((1S*,2S*)-2-(4-methylpyrimidin-2-yl)cyclopropyl)-4-(oxetan-3-yloxy)quinolin-7-yl)amino)methyl)imidazo[1,2-a]pyridin-8-yl)-3-methylimidazolidine-2,4-dione] | ≤ 0.001 µM | 0.4 to 1.5 µM
15 | Cc1ccnc([C@H]2C[C@@H]2c2cc(N(C)C)c3ccc(NCc4cn5cc(C6CC6)ccc5n4)cc3n2)n1 (racemic) [Example 1, rac-N^7-((6-cyclopropylimidazo[1,2-a]pyridin-2-yl)methyl)-N^4,N^4-dimethyl-2-((1S*,2S*)-2-(4-methylpyrimidin-2-yl)cyclopropyl)quinoline-4,7-diamine] | ≤ 0.001 µM | 0.4 to 1.5 µM
16 | Cc1ccnc([C@H]2C[C@@H]2c2cc(N3CCS(=O)(=O)CC3)c3ccc(NCc4cn5cc(C6CC6)cc(N6CC(=O)N(C)C6=O)c5n4)cc3n2)n1 [Example 37, 1-(6-cyclopropyl-2-(((4-(1,1-dioxidothiomorpholino)-2-((1S,2S)-2-(4-methylpyrimidin-2-yl)cyclopropyl)quinolin-7-yl)amino)methyl)imidazo[1,2-a]pyridin-8-yl)-3-methylimidazolidine-2,4-dione] | ≤ 0.001 µM | ≤ 0.4 µM
17 | Cc1ccnc([C@H]2C[C@@H]2c2cc(N3CC4(COC4)C3)c3ccc(N[C@H](C)c4cn5cc(C6CC6)cc(N6CC(=O)N(C)C6=O)c5n4)cc3n2)n1 [Example 101, 1-(6-cyclopropyl-2-((R)-1-((2-((1S,2S)-2-(4-methylpyrimidin-2-yl)cyclopropyl)-4-(2-oxa-6-azaspiro[3.3]heptan-6-yl)quinolin-7-yl)amino)ethyl)imidazo[1,2-a]pyridin-8-yl)-3-methylimidazolidine-2,4-dione] | ≤ 0.001 µM | ≤ 0.4 µM
